Measured values from PMC6484020, “Discovery of selective activators of PRC2 mutant EED-I363M” (Scientific Reports, 2019).
“Also recorded” adds a separate entry of the source. Where a SMILES comes first, the peptide text is derived from it. [ ]: non-standard residue; d: D form. Lys(Me3) = C[N+](C)(C)CCCC[C@H](N)C(=O)O

Assays:
[1] = biological target: T1, PRC2-EED-I363M (EED/EZH2/SUZ12) (Homo sapiens, UniProt O75530+Q15910, I363M); assay: Methyltransferase scintillation proximity assay, H3 (21-44) peptide substrate; type: biochemical; conditions: for effect on catalytic activity of PRC2-EED-I363M: H3 peptide substrate, normalized to activity without compound; for effect on catalytic activity of PRC2-EED-I363M / EC50: compound up to 100 µM; for EC50: 20 nM enzyme, 5 µM 3H-SAM, 2 µM biotin-H3 (21-44), 30 min, 23 °C, read-out: EC50 for activation of PRC2-EED-I363M; for increase of PRC2-EED-I363M kcat values: 20 µM compound, peptide as substrate; for kcat, H3(21–44), PRC2-EED-I363M: in the presence of 20 µM compound, peptide substrate, mean ± SD, n = 3
T1 construct: the full lengths of two components of the PRC2 complex, EED(1–441) and EZH2(1–751); EED(1–441) and EZH2(1–751) were cloned into pFastBac-Dual; made in house; host or cells: Sf9 insect cells (baculovirus co-infection)
T1 sequence (O75530 whole entry I363M): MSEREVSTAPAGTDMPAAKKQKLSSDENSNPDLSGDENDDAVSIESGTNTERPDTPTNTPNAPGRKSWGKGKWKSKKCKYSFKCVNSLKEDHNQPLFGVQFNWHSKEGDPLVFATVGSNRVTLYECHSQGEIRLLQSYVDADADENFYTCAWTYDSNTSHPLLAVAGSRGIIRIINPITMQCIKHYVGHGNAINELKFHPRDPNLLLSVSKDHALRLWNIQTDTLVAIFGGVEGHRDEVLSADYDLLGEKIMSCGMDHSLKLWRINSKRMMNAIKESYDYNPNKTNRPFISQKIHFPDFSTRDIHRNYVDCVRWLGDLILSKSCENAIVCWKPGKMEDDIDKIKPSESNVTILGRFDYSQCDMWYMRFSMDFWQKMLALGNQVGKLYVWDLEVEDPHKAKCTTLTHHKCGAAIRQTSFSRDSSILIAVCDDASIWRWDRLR
T1 sequence (Q15910 1-751 isoform Q15910-2, stated change not applied): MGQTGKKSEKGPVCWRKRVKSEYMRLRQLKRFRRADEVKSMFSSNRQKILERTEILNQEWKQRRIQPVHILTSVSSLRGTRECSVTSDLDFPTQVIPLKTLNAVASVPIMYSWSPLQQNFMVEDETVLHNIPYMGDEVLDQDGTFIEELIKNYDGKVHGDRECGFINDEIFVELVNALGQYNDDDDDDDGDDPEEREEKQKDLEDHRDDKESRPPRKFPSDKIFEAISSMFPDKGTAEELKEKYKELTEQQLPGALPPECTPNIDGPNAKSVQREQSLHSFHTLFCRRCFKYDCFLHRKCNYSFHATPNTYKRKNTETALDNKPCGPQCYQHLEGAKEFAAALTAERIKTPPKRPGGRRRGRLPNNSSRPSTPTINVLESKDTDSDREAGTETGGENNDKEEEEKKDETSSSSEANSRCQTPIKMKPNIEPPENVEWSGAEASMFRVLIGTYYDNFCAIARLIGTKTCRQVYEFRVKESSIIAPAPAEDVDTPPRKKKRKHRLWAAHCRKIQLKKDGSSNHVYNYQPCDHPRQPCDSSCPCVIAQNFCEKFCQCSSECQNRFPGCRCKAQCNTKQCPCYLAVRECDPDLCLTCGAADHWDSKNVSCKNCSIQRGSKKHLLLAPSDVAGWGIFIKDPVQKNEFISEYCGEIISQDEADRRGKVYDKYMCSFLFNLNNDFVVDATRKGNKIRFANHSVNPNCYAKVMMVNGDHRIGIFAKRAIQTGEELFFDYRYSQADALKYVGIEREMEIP
T1 sequence (Q15022 whole entry partner): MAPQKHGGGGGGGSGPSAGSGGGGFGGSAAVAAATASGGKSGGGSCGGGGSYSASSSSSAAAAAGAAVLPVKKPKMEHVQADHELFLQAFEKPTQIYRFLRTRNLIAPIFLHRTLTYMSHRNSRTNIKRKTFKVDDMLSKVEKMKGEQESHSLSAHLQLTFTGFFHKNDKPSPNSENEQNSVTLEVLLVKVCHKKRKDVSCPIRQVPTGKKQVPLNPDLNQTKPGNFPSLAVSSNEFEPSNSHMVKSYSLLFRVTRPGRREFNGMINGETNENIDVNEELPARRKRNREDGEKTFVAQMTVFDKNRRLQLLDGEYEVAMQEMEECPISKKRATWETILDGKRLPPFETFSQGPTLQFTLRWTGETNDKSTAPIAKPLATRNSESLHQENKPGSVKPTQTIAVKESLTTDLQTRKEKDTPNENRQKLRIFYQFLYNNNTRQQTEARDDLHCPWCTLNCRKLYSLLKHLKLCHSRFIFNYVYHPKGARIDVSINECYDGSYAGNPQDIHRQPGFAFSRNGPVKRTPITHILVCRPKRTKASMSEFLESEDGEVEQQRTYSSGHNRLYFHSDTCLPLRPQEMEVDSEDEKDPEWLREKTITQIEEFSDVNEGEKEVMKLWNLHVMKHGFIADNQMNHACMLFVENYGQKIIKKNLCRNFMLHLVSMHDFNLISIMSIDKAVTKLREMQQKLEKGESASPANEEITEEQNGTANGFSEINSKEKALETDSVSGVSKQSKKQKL
Method: (§1) Methyltransferase activity assay for WT PRC2 (EED/EZH2/SUZ12) or mutant PRC2-EED-I363M (EED/EZH2/SUZ12) was performed by monitoring the incorporation of tritium-labeled methyl group to lysine 27 of H3 (21–44) peptide using Scintillation Proximity Assay (SPA) or to human nucleosome using a filter-based assay. The enzymatic reactions were performed at 23 °C with 1 hour incubation of 10 µl reaction mixture in 20 mM Tris-HCl, pH 8, 5 mM DTT, and 0.01% Triton X-100 containing 2 µM of ^3H-SAM (Cat.# NET155V250UC; Perkin Elmer; www.perkinelmer.com), 1 µM of biotinylated H3 (21–44), 20 nM PRC2-WT or PRC2-mutant. To stop the reactions, 10 µL of 7.5 M Guanidine hydrochloride was added, followed by 200 µl of buffer (20 mM Tris, pH 8.0), mixed and transferred to a 96-well Streptavidin coated Flash-plate (Cat. # SMP410A001PK, PerkinElmer, http://www.perkinelmer.ca). After mixing, the mixtures in Flash-plate were incubated for 2 hours and the CPM counts were measured using Topcount plate reader (Perkin Elmer, www.perkinelmer.com).
(§2) The CPM counts in the absence of compound for each dataset were defined as 100% activity. In the absence of the enzyme, the CPM counts in each data set were defined as background (0%). All enzymatic reactions were performed in triplicate and the data were analyzed by GraphPad Prism 7 software.
(§3) Supplementary Figure S5. Testing the effect of 9 compounds on activity of WT- and EED-I363M mutant PRC2 complexes. Activities of WT- and mutant-PRC2 in the presence of each compound are normalized to activity of each protein complex in the absence of compound as 100%.
Experiments were performed using 20 nM of each WT or mutant PRC2 trimeric (EED/EZH2/SUZ12) complexes, 2 µM 3H-SAM, 1 µM biotin-H3 (21-44), and up to 100 µM of compounds, 20 mM Tris-HCl pH 8.0, 5 mM DTT and 0.01% Triton X-100.
Supplementary Figure S6. EC50 determination for activators. The EC50 values were determined […]
PRC2 mutant (EED/EZH2/SUZ12), 5 µM 3H-SAM, 2 µM biotin-H3 (21-44) and compound concentrations up to 100 µM. Reactions were incubated for 30 min at 23°C in 20 mM Tris-HCl pH 8.0, 5 mM DTT, 0.01% Triton X-100). Experiments were performed in triplicate. Data shown […]
(§4) Supplementary Figure S7. Determination of kcat values for WT- and EED- I363M mutant trimeric PRC2 complexes in the presence of activators. The kcat values were determined using (A) H3 (21-44) in the presence of 20 µM of each compound or (B) human nucleosome as a substrate in the presence of 200 µM of each compound. Experiments were […]
(§5) performed in triplicate under the following assay conditions:
(§6) (A) Peptide as substrate: 20 nM wildtype or EED-I363M mutant PRC2 (EED/EZH2/SUZ12), 2 µM biotinylated-H3 (21-44) peptide, various concentrations of 3H-SAM (up to 5 µM). […]
(§7) Reactions with both substrates were incubated for 30 min at 23°C in 20 mM Tris-HCl pH 8.0, 5

PRC2-WT (EED/EZH2/SUZ12) [2] = biological target: T2, PRC2-WT (EED/EZH2/SUZ12) (Homo sapiens, UniProt O75530+Q15910); assay: as above; type: biochemical; conditions: for effect on catalytic activity of PRC2-WT: H3 peptide substrate, compound up to 100 µM, normalized to activity without compound; for kcat, H3(21–44), PRC2-WT: in the presence of 20 µM compound, peptide substrate, mean ± SD, n = 3
T2 construct: the full lengths of two components of the PRC2 complex, EED(1–441) and EZH2(1–751); EED(1–441) and EZH2(1–751) were cloned into pFastBac-Dual; made in house; host or cells: Sf9 insect cells (baculovirus co-infection)
T2 sequence (O75530 whole entry): as the sequence (O75530 whole entry I363M) above, with M363I counted along it
T2 sequence (Q15910 1-751 isoform Q15910-2): as the sequence (Q15910 1-751 isoform Q15910-2, stated change not applied) above
T2 sequence (Q15022 whole entry partner): as the sequence (Q15022 whole entry partner) above
Method: as §1, §2, §3
Experiments were performed using 20 nM of each WT or mutant PRC2 trimeric (EED/EZH2/SUZ12) complexes, 2 µM 3H-SAM, 1 µM biotin-H3 (21-44), and up to 100 µM of compounds, 20 mM Tris-HCl pH 8.0, 5 mM DTT and 0.01% Triton X-100. […]
as §4, §5, §6, §7

[3] = biological target: T1, PRC2-EED-I363M (EED/EZH2/SUZ12); assay: Filter-based methyltransferase assay, human nucleosome substrate; type: biochemical; conditions: for increase of PRC2-EED-I363M kcat values: human nucleosomes as substrate; for kcat, Human nucleosome, PRC2-EED-I363M: in the presence of 200 µM compound, nucleosome substrate, mean ± SD, n = 3
Method: (§8) Figure 3 Effect of compound 1, 2 and 4 on activity of PRC2-WT and PRC2-EED-I363M. Effect of the selected compounds on activity of PRC2-WT and PRC2-EED-I363M mutant were assessed using human nucleosome as a substrate. Experiments were performed in triplicate using 200 nM of enzyme, 2 µM 3H-SAM and 5 µM human nucleosome and 200 µM compounds incubated for 30 min at 23 °C in 20 mM Tris-HCl pH 8.0, 5 mM DTT, 0.01% Triton X-100.
(§9) A filter-based assay was used for human nucleosome as a substrate. The reactions were carried out at 23 °C with 0.5 hour incubation of 10 µl reaction mixture in 20 mM Tris-HCl, pH 8, 5 mM DTT, and 0.01% Triton X-100 containing 2 µM of ^3H-SAM (Cat.# NET155V250UC; Perkin Elmer; www.perkinelmer.com), 5 µM of human nucleosome, 200 nM PRC2-WT or PRC2 mutant. To stop the reactions, 50 µl of 10% TCA was added, mixed and transferred to filter-plates (Millipore; Cat.# MSFBN6B10; www.millipore.com). Plates were centrifuged at 2000 rpm (Allegra X-15R - Beckman Coulter, Inc.) for 2 min followed by two additional 10% TCA wash and one ethanol wash (180 µl) followed by centrifugation. Plates were dried and 100 µl MicroO (MicroScint-O; Cat.# 6013611, Perkin Elmer; www.perkinelmer.com) was added to each well, centrifuged and removed. 70 µl of MicroO was added again and CPM was measured using Topcount plate reader.
as §2, §4
(§10) performed in triplicate under the following assay conditions: […]
(§11) (B) Human nucleosome as a substrate: 200 nM wildtype or EED-I363M mutant trimeric PRC2 (EED/EZH2/SUZ12), various concentrations of 3H-SAM (up to 5 µM) and 5 µM human […]
as §7

PRC2-WT (EED/EZH2/SUZ12) [4] = biological target: T2, PRC2-WT (EED/EZH2/SUZ12); assay: as above; type: biochemical; conditions: for kcat, Human nucleosome, PRC2-WT: in the presence of 200 µM compound, nucleosome substrate, mean ± SD, n = 3
Method: as §8, §9, §2, §4, §10, §11, §7

wildtype EED = conditions: cited from earlier work

CC(C)CC(NC(=O)C(Cc1ccccc1)NC(=O)C(CCCC[N+](C)(C)C)NC(=O)C1CC2CCCCC2N1CCCCN)C(N)=O (stereo not drawn) [compound 3]
effect on catalytic activity of PRC2-EED-I363M [1]: does not show any activator effect | effect on catalytic activity of PRC2-WT (PRC2-WT (EED/EZH2/SUZ12) [2]): highest inhibition; also recorded: dose-dependent inhibitory potency

CC(C)C[C@H](NC(=O)[C@H](Cc1ccccc1)NC(=O)[C@H](CCCC[N+](C)(C)C)NC(=O)[C@H](CCCCN)NC(=O)[C@@H]1CCCN1)C(N)=O [compound 2] (H-PK[Lys(Me3)]FL-NH2)
increase of PRC2-EED-I363M kcat values [3]: about 2 fold | kcat, Human nucleosome, PRC2-EED-I363M [3]: 1.5 ± 0.02 h⁻¹ | effect on PRC2-WT catalytic activity (PRC2-WT (EED/EZH2/SUZ12) [4]; human nucleosome as substrate): weak inhibitor | kcat, Human nucleosome, PRC2-WT (PRC2-WT (EED/EZH2/SUZ12) [4]): 1.6 ± 0.04 h⁻¹ | EC50 [1]: 2400 ± 400 nM | increase of PRC2-EED-I363M kcat values [1]: more than 2 fold | effect on catalytic activity of PRC2-EED-I363M [1]: significant increase | kcat, H3(21–44), PRC2-EED-I363M [1]: 21 ± 1 h⁻¹ | effect on catalytic activity of PRC2-WT (PRC2-WT (EED/EZH2/SUZ12) [2]): minimal effects | kcat, H3(21–44), PRC2-WT (PRC2-WT (EED/EZH2/SUZ12) [2]): 24 ± 0.5 h⁻¹

CC(C)C[C@H](NC(=O)[C@H](Cc1ccccc1)NC(=O)[C@H](CCCCN(C)C(C)C)NC(=O)[C@@H]1C[C@@H]2CCCC[C@@H]2N1)C(N)=O [UNC5114, reference compound]
effect on catalytic activity of PRC2-EED-I363M [1]: minimal effects | effect on catalytic activity of PRC2-WT (PRC2-WT (EED/EZH2/SUZ12) [2]): antagonized | Kd (wildtype EED): 700 to 1100 nM

CC(C)C[C@H](NC(=O)[C@H](Cc1ccccc1)NC(=O)[C@H](CCCC[N+](C)(C)C)NC(=O)[C@H](CCCNC(=N)N)NC(=O)[C@@H]1CCCN1)C(N)=O [compound 1] (H-PR[Lys(Me3)]FL-NH2)
increase of PRC2-EED-I363M kcat values [3]: about 2 fold | kcat, Human nucleosome, PRC2-EED-I363M [3]: 1.3 ± 0.01 h⁻¹ | kcat, Human nucleosome, PRC2-WT (PRC2-WT (EED/EZH2/SUZ12) [4]): 1.7 ± 0.05 h⁻¹ | EC50 [1]: 2300 ± 400 nM | increase of PRC2-EED-I363M kcat values [1]: more than 2 fold | effect on catalytic activity of PRC2-EED-I363M [1]: significant increase | kcat, H3(21–44), PRC2-EED-I363M [1]: 20 ± 1 h⁻¹ | effect on catalytic activity of PRC2-WT (PRC2-WT (EED/EZH2/SUZ12) [2]): minimal effects | kcat, H3(21–44), PRC2-WT (PRC2-WT (EED/EZH2/SUZ12) [2]): 25 ± 0.5 h⁻¹
